Consider 29 molecules from patent publication US20090111801A1, “SUBSTITUTED PYRAZINONE DERIVATIVES FOR USE AS A MEDICINE” (Janssen Pharmaceutica N.V., priority 2006, published 2009).

Test [1] has as its target T1, hα2A receptor (Homo sapiens, UniProt P08913).
T1 construct: expressed in transfected cells; host or cells: CHO cells, stably transfected; membrane preparation
T1 sequence (P08913 1-465): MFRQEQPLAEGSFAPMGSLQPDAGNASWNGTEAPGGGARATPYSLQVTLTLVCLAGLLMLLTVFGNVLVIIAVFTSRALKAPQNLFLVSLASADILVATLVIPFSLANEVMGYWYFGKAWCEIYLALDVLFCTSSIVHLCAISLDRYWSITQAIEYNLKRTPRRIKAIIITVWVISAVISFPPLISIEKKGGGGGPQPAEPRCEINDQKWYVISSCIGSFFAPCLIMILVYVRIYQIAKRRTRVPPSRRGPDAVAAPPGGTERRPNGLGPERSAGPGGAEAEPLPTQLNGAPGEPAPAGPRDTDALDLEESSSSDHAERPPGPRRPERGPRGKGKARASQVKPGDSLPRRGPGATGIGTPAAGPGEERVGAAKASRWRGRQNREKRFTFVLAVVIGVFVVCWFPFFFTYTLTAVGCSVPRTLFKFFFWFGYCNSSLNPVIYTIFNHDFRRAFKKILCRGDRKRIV
The test is described as follows: Radioligand binding experiment for α2A-adrenoceptor ([3H]raulwolscine, CHO cell membranes). The note with it: [3H]raulwolscine binding; for IC50: read-out: h-α2A pIC50 (converted). The procedure:
(§1) The interaction of a compound of Formula (I) with α2-adrenoceptor receptors was assessed in in vitro radioligand binding experiments. In general, a low concentration of a radioligand with a high binding affinity for a particular receptor or transporter is incubated with a sample of a tissue preparation enriched in a particular receptor or transporter or with a preparation of cells expressing cloned human receptors in a buffered medium. During the incubation, the radioligand binds to the receptor or transporter. When equilibrium of binding is reached, the receptor bound radioactivity is separated from the non-bound radioactivity, and the receptor- or transporter-bound activity is counted. The interaction of the test compounds with the receptor is assessed in competition binding experiments. Various concentrations of the test compound are added to the incubation mixture containing the receptor- or transporter preparation and the radioligand. The test compound in proportion to its binding affinity and its concentration inhibits binding of the radioligand. The radioligand used for hα2A and hα2C receptor binding was [^3H]-raulwolscine.
(§2) CHO cells, stabile transfected with human adrenergic-α2A and α2C receptor cDNA, were cultured in Dulbecco's Modified Eagle's Medium (DMEM)/Nutrient mixture Ham's F12 (ratio 1:1)(Gibco, Gent-Belgium) supplemented with 10% heat inactivated fetal calf serum (Life Technologies, Merelbeke-Belgium) and antibiotics (100 IU/ml penicillin G, 100 μg/ml streptomycin sulphate, 110 μg/ml pyruvic acid and 100 μg/ml L-glutamine). One day before collection, cells were induced with 5 mM sodiumbutyrate. Upon 80-90% of confluence, cells were scraped in phosphate buffered saline without Ca^2+ and Mg^2+ and collected by centrifugation at 1500×g for 10 minutes. The cells were homogenised in Tris-HCl 50 mM using an Ultraturrax homogenizer and centrifuged for 10 minutes at 23,500×g. The pellet was washed once by resuspension and rehomogenization and the final pellet was resuspended in Tris-HCl, divided in 1 ml aliquots and stored at −70° C.
(§3) Membranes were thawed and re-homogenized in incubation buffer (glycylglycine 25 mM, pH 8.0). […] Filters were rinsed extensively with ice-cold rinsing buffer (Tris-HCl 50 mM pH 7.4). Filter-bound radioactivity was determined by scintillation counting in a Topcount (Packard, Meriden, Conn.) and results were expressed as counts per minute (cpm). Non-specific binding was determined in the presence of 1 μM oxymetazoline for the hα2A receptor and 1 μM spiroxatrine for hα2C receptor.
(§4) Data from assays in the presence of compound were calculated as a percentage of total binding measured in the absence of test compound. Inhibition curves, plotting percent of total binding versus the log value of the concentration of the test compound, were automatically generated, and sigmoidal inhibition curves were fitted using non-linear regression. The pIC50 values of test compounds were derived from individual curves.

Test [2] concerns the target T2, hα2C receptor (Homo sapiens, UniProt P18825).
T2 construct: expressed in transfected cells; host or cells: CHO cells, stably transfected; membrane preparation
T2 sequence (P18825 1-462): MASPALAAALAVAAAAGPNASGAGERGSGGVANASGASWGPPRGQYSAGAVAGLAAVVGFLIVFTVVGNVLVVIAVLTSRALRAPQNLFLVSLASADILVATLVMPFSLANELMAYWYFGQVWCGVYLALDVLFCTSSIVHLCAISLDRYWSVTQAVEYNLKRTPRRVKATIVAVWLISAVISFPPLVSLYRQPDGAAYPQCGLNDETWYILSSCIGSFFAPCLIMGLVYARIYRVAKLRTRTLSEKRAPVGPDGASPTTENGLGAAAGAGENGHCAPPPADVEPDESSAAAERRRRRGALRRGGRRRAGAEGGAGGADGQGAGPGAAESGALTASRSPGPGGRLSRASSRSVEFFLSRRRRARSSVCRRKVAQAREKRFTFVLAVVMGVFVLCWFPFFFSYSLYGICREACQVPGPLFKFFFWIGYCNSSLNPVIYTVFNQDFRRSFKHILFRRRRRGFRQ
The test is described as follows: Radioligand binding experiment for α2C-adrenoceptor ([3H]raulwolscine, CHO cell membranes). The note with it: [3H]raulwolscine binding; for IC50: read-out: h-α2C pIC50 (converted). The method, then:
as §1, §2, §3, §4

For test [3], the target named is T3, 5HT-Transporter (Homo sapiens, UniProt P31645).
T3 construct: Human platelet membranes (Oceanix Biosciences Corporation, Hanover, Md., USA) were thawed; tissue Oceanix Biosciences Corporation, Hanover, Md., USA; host or cells: human platelet membranes
The test is described as follows: Binding experiment for the 5HT-transporter ([3H]paroxetine, human platelet membranes). The note with it: [3H]paroxetine 0.5 nM; for IC50: read-out: h-5HTT pIC50 (converted). The method, then: as §1
Human platelet membranes (Oceanix Biosciences Corporation, Hanover, Md., USA) were thawed, diluted in buffer (Tris-HCl 50 mM, 120 mM NaCl and 5 mM KCl) and quickly (max 3 s) homogenised with an Ultraturrax homogenizer. […] Incubation was stopped by rapid filtration of the incubation mixture over GF/B filters, pre-wetted with 0.1% polyethyleneamine, using a Filtermate196 harvester (Packard, Meriden, Conn.). Filters were rinsed extensively with ice-cold buffer and radioactivity on the filters was counted in a Topcount liquid scintillation counter (Packard, Meriden, Conn.). Data were expressed as cpm. Imipramine (at 1 μM final concentration) was used to determine the non-specific binding.
as §4

T3 sequence (P31645 whole entry): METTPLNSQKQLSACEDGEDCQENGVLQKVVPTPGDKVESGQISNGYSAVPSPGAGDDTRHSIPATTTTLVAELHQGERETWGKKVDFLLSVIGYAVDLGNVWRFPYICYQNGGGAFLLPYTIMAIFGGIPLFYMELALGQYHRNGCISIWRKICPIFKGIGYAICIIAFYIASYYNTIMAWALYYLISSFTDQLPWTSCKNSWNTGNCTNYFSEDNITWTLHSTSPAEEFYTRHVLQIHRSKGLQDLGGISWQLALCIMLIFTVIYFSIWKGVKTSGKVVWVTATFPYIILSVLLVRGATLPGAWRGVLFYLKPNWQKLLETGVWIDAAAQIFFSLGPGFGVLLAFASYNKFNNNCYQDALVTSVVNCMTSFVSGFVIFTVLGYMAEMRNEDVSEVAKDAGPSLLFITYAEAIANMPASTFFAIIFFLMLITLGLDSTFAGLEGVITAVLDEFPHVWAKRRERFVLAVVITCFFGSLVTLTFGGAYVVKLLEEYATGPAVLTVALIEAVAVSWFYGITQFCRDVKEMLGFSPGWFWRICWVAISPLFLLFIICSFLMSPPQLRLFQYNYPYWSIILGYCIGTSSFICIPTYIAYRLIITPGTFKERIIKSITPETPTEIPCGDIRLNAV

On to `C/C(=C\c1ccccc1)CN1CCC(Nc2nccn(Cc3ccc(Br)cc3)c2=O)CC1` [5-16], for which the IC50 is 126 nM in test [1], 50.1 nM in test [2] and 501 nM in test [3].

As for `C/C(=C\c1ccccc1)CN1CCC(N(C)c2nccn(CCCO)c2=O)CC1` [15-4], the IC50 was 63.1 nM in test [1], 39.8 nM in test [2] and 2510 nM in test [3].

Consider `C/C(=C\c1ccccc1)CN1CCC(Nc2nccn(Cc3ccccc3Br)c2=O)CC1` [5-14], for which the IC50 in test [1] was 50.1 nM; in test [2], 12.6 nM; in test [3], 200 nM.

As to `COCCCn1ccnc(NC2CCN(C/C(C)=C/c3ccccc3)CC2)c1=O` [3-6], the IC50 in test [1] was 631 nM; in test [2], 63.1 nM; in test [3], 3980 nM.

For the molecule `C/C(=C\c1ccccc1)CN1CCC(Nc2nccn(CC(=O)N3CCN(C(=O)C4CCCO4)CC3)c2=O)CC1` (stereo not drawn) [2-38], the IC50 was 158 nM in test [1], 39.8 nM in test [2] and 7940 nM in test [3].

For `CCN(CC)c1cccc(-n2ccnc(NC3CCN(C/C(C)=C/c4ccccc4)CC3)c2=O)c1` [1-17], the IC50 was 5.01 nM in test [1], 1.58 nM in test [2] and 1000 nM in test [3].

In the case of `C/C(=C\c1ccccc1)CN1CCC(Nc2nccn(Cc3ccc(CNS(=O)(=O)/C=C/c4ccccc4)cc3)c2=O)CC1` [1-167], the figures for the IC50 in test [1], in test [2] and in test [3] were 200 nM, 39.8 nM and 631 nM, respectively.

Take `C/C(=C\c1ccccc1)CN1CCC(Nc2nccn(CCCNc3ccccc3)c2=O)CC1` [1-39]: the figures for the IC50 in test [1], in test [2] and in test [3] were 79.4 nM, 7.94 nM and 200 nM, respectively.

Take `O=c1c(NC2CCN(C/C=C/c3ccccc3)CC2)nccn1Cc1ccc2ccccc2c1` [16-18]: the results for the IC50 in test [1], in test [2] and in test [3] were 251 nM, 251 nM and 398 nM, respectively.

As for `C/C(=C\c1ccccc1)CN1CCC(Nc2nccn(-c3ccc(-c4ccccc4)cc3)c2=O)CC1` [5-30], the IC50 was 25.1 nM in test [1], 7.94 nM in test [2] and 398 nM in test [3].

Consider `C/C(=C\c1ccccc1)CN1CCC(Nc2nccn(Cc3ccccc3C(F)(F)F)c2=O)CC1` [5-21], for which the IC50 in test [1] is 158 nM; in test [2], 25.1 nM; in test [3], 398 nM.

As to `COCCOCCn1ccnc(NC2CCN(C/C(C)=C/c3ccccc3)CC2)c1=O` [3-21], the values for the IC50 in test [1], in test [2] and in test [3] were 316 nM, 39.8 nM and 3980 nM, respectively.

As for `C/C(=C\c1ccccc1)CN1CCC(N(C)c2nccn(CC3CCCCO3)c2=O)CC1` (stereo not drawn) [15-7], the IC50 in test [1] was 79.4 nM; in test [2] it was 39.8 nM; in test [3] it was 3160 nM.

For `C/C(=C\c1ccccc1)CN1CCC(Nc2nccn(CC(=O)N(CCN(C)C)Cc3ccc(F)cc3)c2=O)CC1` [1-113], the IC50 in test [1] is 126 nM; in test [2], 3.98 nM; in test [3] it was 7940 nM.

Turning to `C/C(=C\c1ccccc1)CN1CCC(Nc2nccn(CCc3ccccc3)c2=O)CC1` [5-27], the figures for the IC50 in test [1], in test [2] and in test [3] were 100 nM, 15.8 nM and 398 nM, respectively.

Take `CSCCn1ccnc(NC2CCN(C/C(C)=C/c3ccccc3)CC2)c1=O` [4-1]: the values for the IC50 in test [1], in test [2] and in test [3] were 39.8 nM, 20 nM and 3160 nM, respectively.

For the molecule `C/C(=C\c1ccccc1)CN1CCC(Nc2nccn(C/C=C/c3ccccc3)c2=O)CC1` [5-28], the IC50 was 158 nM in test [1], 63.1 nM in test [2] and 501 nM in test [3].

Take `C/C(=C\c1ccccc1)CN1CCC(Nc2nccn(CC(=O)NCc3ccccc3)c2=O)CC1` [1-48]: the IC50 in test [1] was 126 nM; in test [2] it was 5.01 nM; in test [3], 2000 nM.

Consider `C/C(=C\c1ccccc1)CN1CCC(Nc2nccn(-c3ccc(N)cc3)c2=O)CC1` [1-5], for which the IC50 in test [1] is 100 nM; in test [2], 6.31 nM; in test [3] it was 2000 nM.

Regarding `C/C(=C\c1ccccc1)CN1CCC(Nc2nccn(CC(=O)c3ccc4c(c3)NC(=O)CO4)c2=O)CC1` [6-15], the IC50 in test [1] is 15.8 nM; in test [2] it was 20 nM; in test [3] it was 1000 nM.

Turning to `C/C(=C\c1ccccc1)CN1CCC(Nc2nccn(CC(=O)N3CCOCC3)c2=O)CC1` [2-41], the IC50 in test [1] is 126 nM; in test [2] it was 12.6 nM; in test [3] it was 3980 nM.

On to `C/C(=C\c1ccccc1)CN1CCC(Nc2nccn(-c3ccc(CNCCN(C)C)cc3)c2=O)CC1` [1-105], for which the IC50 in test [1] is 39.8 nM; in test [2] it was 5.01 nM; in test [3], 631 nM.

Take `C/C(=C\c1ccccc1)CN1CCC(Nc2nccn(CCCN(C)C(=O)OC(C)(C)C)c2=O)CC1` [1-92]: the IC50 in test [1] was 100 nM; in test [2], 6.31 nM; in test [3], 1260 nM.

For `C/C(=C\c1ccccc1)CN1CCC(Nc2nccn(CC(=O)N(CCO)Cc3ccccc3)c2=O)CC1` [1-67], the IC50 was 100 nM in test [1], 3.16 nM in test [2] and 1000 nM in test [3].

For the molecule `C/C(=C\c1ccccc1)CN1CCC(Nc2nccn(CCCCN3C(=O)c4ccccc4C3=O)c2=O)CC1` [2-51], the IC50 in test [1] was 100 nM; in test [2], 3.98 nM; in test [3], 158 nM.

Consider `C/C(=C\c1ccccc1)CN1CCC(Nc2nccn(-c3ccc(C(=O)N4CCN(C)CC4)cc3)c2=O)CC1` [2-21], for which the IC50 in test [1] is 100 nM; in test [2] it was 10 nM; in test [3], 501 nM.

Consider `C/C(=C\c1ccccc1)CN1CCC(Nc2nccn(Cc3csc(C)n3)c2=O)CC1` [6-6], for which the results for the IC50 in test [1], in test [2] and in test [3] were 126 nM, 20 nM and 3160 nM, respectively.

With `C/C(=C\c1ccccc1)CN1CCC(Nc2nccn(-c3cccc(CNCCN4CCCC4)c3)c2=O)CC1` [1-130], the “h-α2A pIC50” value in test [1] worked out at 8.2. In addition, in test [2], the “h-α2C pIC50” value worked out at 8.8. Moreover, in test [3], the “h-5HTT pIC50” value was 6.7.

As to `C/C(=C\c1ccccc1)CN1CCC(Nc2nccn(-c3ccc(NC(=O)CC4CCCC4)cc3)c2=O)CC1` [1-35], the IC50 in test [1] is 251 nM; in test [2], 50.1 nM; in test [3] it was 1260 nM.
